Experimental data as given in patent US8609669B2, “Potassium channel modulators” (AbbVie Inc., priority 2010, dated 2013).

Molecular target: T1, KCNQ 2/3 channels (HEK293 cells stably expressing human KCNQ2 and KCNQ3 subunits) (Homo sapiens, UniProt O43525+O43526)
T1 construct: expressed in transfected cells; host or cells: HEK293
Assay: KCNQ2/3 channel activation, thallium flux FLIPR assay (BTC-AM dye)
Assay type: cell-based
Conditions: for Emax: HEK293, maximum response relative to response of retigabine at 10 μM (set at 100%), read-out: Max. %; for EC50: HEK293 cells expressing human KCNQ2 and KCNQ3, FLIPR thallium flux
Method: The following example describes the assay that can be used to identify compounds that activate KCNQ 2/3 channels.
HEK293 cells stably expressing human KCNQ2 and KCNQ3 subunits were seeded in 96-well, black-walled, clear-bottomed, poly-D-lysine coated plates (BD Biosciences, Bedford, Mass.) at a density of 1×10^5 cells per well 24 hours before the assay. On the assay day, BTC-AM dye (Invitrogen, Carlsbad, Calif.) was loaded into the cells by replacing the cell culture medium with 100 μL/well of 4 μM dye in DPBS. Dye loading was allowed to proceed for 2 hours at room temperature and then cells were washed twice in 100 μL/well of assay buffer (in mM: 10 HEPES pH 7.3, 5 glucose, 140 Na-gluconate, 2.5 K-gluconate, 3.6 Ca-gluconate, 2 MgSO4, 0.1 Ouabain) to remove unloaded dye. Cells were incubated in 50 μL of assay buffer before loading onto a FLIPR system (Molecular Devices, Sunnyvale, Calif.). Various concentrations of compounds to be assayed were added to the cells in 50 μL of assay buffer and incubated for 4 minutes. The fluorescence signal was initiated by adding 100 μL of assay buffer containing 6 mM TlNO3 and 10 mM K2SO4. Fluors were excited using the 488-nm line of an argon laser and emission was filtered using a 540±30 nm bandpass filter. Fluorescent signals were recorded for 3 minutes. Responses over baseline values were plotted versus concentrations of test compounds to obtain an EC50 value. The maximum response for each test compound was determined relative to the response produced at 10 μM by retigabine. The maximum response of retigabine at 10 μM was set at 100%.

SMILES	Emax [%]	EC50 [nM]
O=C(NCC1CCOCC1)Nc1nn2cccnc2c1-c1ccc(Cl)cc1 [Example 103, 1-[3-(4-chlorophenyl)pyrazolo[1,5-a]pyrimidin-2-yl]-3-(tetrahydro-2H-pyran-4-ylmethyl)urea]	8	> 10000
O=C(Cc1ccc(F)cc1)Nc1nn2cccnc2c1-c1cccc(F)c1 [Example 82, 2-(4-fluorophenyl)-N-[3-(3-fluorophenyl)pyrazolo[1,5-a]pyrimidin-2-yl]acetamide]	112	500 to 1000
O=C(Cc1ccccn1)Nc1nn2cccnc2c1-c1ccc(Cl)cc1 [Example 100, N-[3-(4-chlorophenyl)pyrazolo[1,5-a]pyrimidin-2-yl]-2-(pyridin-2-yl)acetamide]	-1	> 10000
CC(C)c1c(NC(=O)CCC2CC2)nn2cccnc12 [Example 118, 3-cyclopropyl-N-(3-isopropylpyrazolo[1,5-a]pyrimidin-2-yl)propanamide]	14	> 10000
O=C(Cc1cccnc1)Nc1nn2cccnc2c1-c1ccc(OC(F)(F)F)cc1 [Example 98, 2-(pyridin-3-yl)-N-{3-[4-(trifluoromethoxy)phenyl]pyrazolo[1,5-a]pyrimidin-2-yl}acetamide]	72.3	> 10000
Cc1cc(-c2c(NC(=O)Cc3ccc(F)cc3)nn3cccnc23)ccc1Cl [Example 45, N-[3-(4-chloro-3-methylphenyl)pyrazolo[1,5-a]pyrimidin-2-yl]-2-(4-fluorophenyl)acetamide]	95	> 10000
CC(C)(C)c1c(NC(=O)CCC2CCCC2)nn2cccnc12 [Example 105, N-(3-tert-butylpyrazolo[1,5-a]pyrimidin-2-yl)-3-cyclopentylpropanamide]	153	100 to 500
Cc1ccn2nc(NC(=O)Cc3ccc(F)cc3)c(-c3ccc(OC(F)(F)F)cc3)c2n1 [Example 168, 2-(4-fluorophenyl)-N-{5-methyl-3-[4-(trifluoromethoxy)phenyl]pyrazolo[1,5-a]pyrimidin-2-yl}acetamide]	78	100 to 500
O=C(NCC1CCCCC1)Nc1nn2cccnc2c1-c1ccc(Cl)cc1 [Example 99, 1-[3-(4-chlorophenyl)pyrazolo[1,5-a]pyrimidin-2-yl]-3-(cyclohexylmethyl)urea]	94	1000 to 10000
CC(C)(C)CC(=O)Nc1nn2cccnc2c1C(C)(C)C [Example 106, N-(3-tert-butylpyrazolo[1,5-a]pyrimidin-2-yl)-3,3-dimethylbutanamide]	67	1000 to 10000
CC(C)(C)c1c(NC(=O)CCc2ccccc2)nn2cccnc12 [Example 129, N-(3-tert-butylpyrazolo[1,5-a]pyrimidin-2-yl)-3-phenylpropanamide]	160	100 to 500
CC(C)c1c(NC(=O)CCC2CCCC2)nn2cccnc12 [Example 112, 3-cyclopentyl-N-(3-isopropylpyrazolo[1,5-a]pyrimidin-2-yl)propanamide]	135	500 to 1000
CC(C)(C)c1c(NC(=O)Cc2cc(F)cc(F)c2)nn2cccnc12 [Example 127, N-(3-tert-butylpyrazolo[1,5-a]pyrimidin-2-yl)-2-(3,5-difluorophenyl)acetamide]	147	100 to 500
O=C(CCC1CCCC1)Nc1nn2cccnc2c1-c1cccnc1 [Example 119, 3-cyclopentyl-N-[3-(pyridin-3-yl)pyrazolo[1,5-a]pyrimidin-2-yl]propanamide]	52	1000 to 10000
CC(C)(C)CC(=O)Nc1nn2cccnc2c1-c1cccc(OC(F)(F)F)c1 [Example 22, 3,3-dimethyl-N-{3-[3-(trifluoromethoxy)phenyl]pyrazolo[1,5-a]pyrimidin-2-yl}butanamide]	141	1000 to 10000
Cc1cc(C)n2nc(NC(=O)CC3CCCCC3)c(-c3cccc(Cl)c3)c2n1 [Example 52, N-[3-(3-chlorophenyl)-5,7-dimethylpyrazolo[1,5-a]pyrimidin-2-yl]-2-cyclohexylacetamide]	156	100 to 500
Cc1cnc2c(-c3ccccc3)c(NC(=O)Cc3ccc(Cl)cc3)nn2c1 [Example 93, 2-(4-chlorophenyl)-N-(6-methyl-3-phenylpyrazolo[1,5-a]pyrimidin-2-yl)acetamide]	131	100 to 500

Results, then the compound that gave them:

Emax [%]	EC50 [nM]	SMILES
141	< 100	Cc1ccnc2c(Cc3ccc(F)cc3)c(NC(=O)CCC3CCCC3)nn12 [Example 71, 3-cyclopentyl-N-[3-(4-fluorobenzyl)-7-methylpyrazolo[1,5-a]pyrimidin-2-yl]propanamide]
18	100 to 500	CC(C)c1c(NC(=O)CC(C)(C)C)nn2cccnc12 [Example 113, N-(3-isopropylpyrazolo[1,5-a]pyrimidin-2-yl)-3,3-dimethylbutanamide]
133	< 100	Cc1cnc2c(Cc3ccc(F)cc3)c(NC(=O)CCC3CCCCC3)nn2c1 [Example 77, 3-cyclohexyl-N-[3-(4-fluorobenzyl)-6-methylpyrazolo[1,5-a]pyrimidin-2-yl]propanamide]
137	100 to 500	O=C(CCC1CCCCC1)Nc1nn2cccnc2c1-c1ccc(F)cc1 [Example 24, 3-cyclohexyl-N-[3-(4-fluorophenyl)pyrazolo[1,5-a]pyrimidin-2-yl]propanamide]
143	< 100	Cc1cnc2c(Cc3ccc(F)cc3)c(NC(=O)CC3CCCC3)nn2c1 [Example 5, 2-cyclopentyl-N-(3-(4-fluorobenzyl)-6-methylpyrazolo[1,5-a]pyrimidin-2-yl)acetamide]
174	100 to 500	CC(C)(C)/C=C/c1c(NC(=O)CC(C)(C)C)nn2cccnc12 [Example 144, N-{3-[(1E)-3,3-dimethylbut-1-en-1-yl]pyrazolo[1,5-a]pyrimidin-2-yl}-3,3-dimethylbutanamide]
125	100 to 500	Cc1cnc2c(-c3cccc(C(F)(F)F)c3)c(NC(=O)CC(C)(C)C)nn2c1 [Example 63, 3,3-dimethyl-N-{6-methyl-3-[3-(trifluoromethyl)phenyl]pyrazolo[1,5-a]pyrimidin-2-yl}butanamide]
83	100 to 500	Cc1cnc2c(-c3ccc(F)c(C)c3)c(NC(=O)C(C)c3ccccc3)nn2c1 (racemic) [Example 176, (±)-N-[3-(4-fluoro-3-methylphenyl)-6-methylpyrazolo[1,5-a]pyrimidin-2-yl]-2-phenylpropanamide]
155	< 100	Cc1cc(C)n2nc(NC(=O)CCC3CCCC3)c(C(C)C)c2n1 [Example 122, 3-cyclopentyl-N-(3-isopropyl-5,7-dimethylpyrazolo[1,5-a]pyrimidin-2-yl)propanamide]
182	< 100	Cc1cc(C)n2nc(NC(=O)CCC3CCCCC3)c(CC(C)(C)C)c2n1 [Example 14, 3-cyclohexyl-N-[3-(2,2-dimethylpropyl)-5,7-dimethylpyrazolo[1,5-a]pyrimidin-2-yl]propanamide]
155	< 100	Cc1cc(C)n2nc(NC(=O)CC3CCCCC3)c(-c3ccccc3)c2n1 [Example 94, 2-cyclohexyl-N-(5,7-dimethyl-3-phenylpyrazolo[1,5-a]pyrimidin-2-yl)acetamide]
